In article PMC10239507, “Development of allosteric and selective CDK2 inhibitors for contraception with negative cooperativity to cyclin binding” (Nature Communications, 2023):

Tests used:
Assay in all cases: biochemical
[1] = molecular target: T1, 371 kinases (kinase named in each endpoint) (Homo sapiens, UniProt Q07912); conditions: ACK1
T1 construct: purchased Reaction Biology

[2] = molecular target: T2, 371 kinases (kinase named in each endpoint) (Homo sapiens, UniProt Q13555); conditions: CAMK2g
T2 construct: purchased Reaction Biology

[3] = molecular target: T3, 371 kinases (kinase named in each endpoint) (Homo sapiens, UniProt Q9NY57); conditions: STK32B/YANK2
T3 construct: purchased Reaction Biology

[4] = molecular target: T4, 371 kinases (kinase named in each endpoint) (Homo sapiens, UniProt Q99759); conditions: MEKK3
T4 construct: purchased Reaction Biology

[5] = molecular target: T5, 371 kinases (kinase named in each endpoint) (Homo sapiens, UniProt P37023); conditions: ALK1/ACVRL1
T5 construct: purchased Reaction Biology

[6] = molecular target: T6, 371 kinases (kinase named in each endpoint) (Homo sapiens, UniProt O95747); conditions: OSR1/OXSR1
T6 construct: purchased Reaction Biology

[7] = molecular target: T7, 371 kinases (kinase named in each endpoint) (Homo sapiens, UniProt P36888); conditions: FLT3
T7 construct: purchased Reaction Biology

[8] = molecular target: T8, 371 kinases (kinase named in each endpoint) (Homo sapiens, UniProt Q13554); conditions: CAMK2B
T8 construct: purchased Reaction Biology

[9] = molecular target: T9, 371 kinases (kinase named in each endpoint) (Homo sapiens, UniProt P30530); conditions: AXL
T9 construct: purchased Reaction Biology

[10] = molecular target: T10, 371 kinases (kinase named in each endpoint) (Homo sapiens, UniProt P36896); conditions: ALK4/ACVR1B
T10 construct: purchased Reaction Biology

[11] = molecular target: T11, 371 kinases (kinase named in each endpoint) (Homo sapiens, UniProt Q00536); conditions: CDK16/CYCLIN Y (PCTAIRE)
T11 construct: purchased Reaction Biology

[12] = molecular target: T12, 371 kinases (kinase named in each endpoint) (Homo sapiens, UniProt Q5S007); conditions: LRRK2
T12 construct: purchased Reaction Biology

[13] = molecular target: T13, 371 kinases (kinase named in each endpoint) (Homo sapiens, UniProt P10398); conditions: ARAF
T13 construct: purchased Reaction Biology

[14] = molecular target: T14, 371 kinases (kinase named in each endpoint) (Homo sapiens, UniProt Q96PY6); conditions: NEK1
T14 construct: purchased Reaction Biology

[15] = molecular target: T15, 371 kinases (kinase named in each endpoint) (Homo sapiens, UniProt Q8TDC3); conditions: BRSK1
T15 construct: purchased Reaction Biology

[16] = molecular target: T16, 371 kinases (kinase named in each endpoint) (Homo sapiens, UniProt Q8IU85); conditions: CAMK1D
T16 construct: purchased Reaction Biology

[17] = molecular target: T17, 371 kinases (kinase named in each endpoint) (Homo sapiens, UniProt Q15746); conditions: MLCK/MYLK
T17 construct: purchased Reaction Biology

[18] = molecular target: T18, 371 kinases (kinase named in each endpoint) (Homo sapiens, UniProt P04049); conditions: RAF1
T18 construct: purchased Reaction Biology

[19] = molecular target: T19, 371 kinases (kinase named in each endpoint) (Homo sapiens, UniProt Q8IVH8); conditions: GLK/MAP4K3
T19 construct: purchased Reaction Biology

[20] = molecular target: T20, 371 kinases (kinase named in each endpoint) (Homo sapiens, UniProt P54764); conditions: EPHA4
T20 construct: purchased Reaction Biology

[21] = molecular target: T21, 371 kinases (kinase named in each endpoint) (Homo sapiens, UniProt P28482); conditions: ERK2/MAPK1
T21 construct: purchased Reaction Biology

[22] = molecular target: T22, 371 kinases (kinase named in each endpoint) (Homo sapiens, UniProt Q04771); conditions: ALK2/ACVR1
T22 construct: purchased Reaction Biology

[23] = molecular target: T23, 371 kinases (kinase named in each endpoint) (Homo sapiens, UniProt P11362); conditions: FGFR1
T23 construct: purchased Reaction Biology

[24] = molecular target: T24, 371 kinases (kinase named in each endpoint) (Homo sapiens, UniProt Q9BXA7); conditions: STK22D/TSSK1
T24 construct: purchased Reaction Biology

[25] = molecular target: T25, 371 kinases (kinase named in each endpoint) (Homo sapiens, UniProt P48729); conditions: CK1A1
T25 construct: purchased Reaction Biology

[26] = molecular target: T26, 371 kinases (kinase named in each endpoint) (Homo sapiens, UniProt Q8IWQ3); conditions: BRSK2
T26 construct: purchased Reaction Biology

[27] = molecular target: T27, 371 kinases (kinase named in each endpoint) (Homo sapiens, UniProt Q8N752); conditions: CK1A1L
T27 construct: purchased Reaction Biology

[28] = molecular target: T28, 371 kinases (kinase named in each endpoint) (Homo sapiens, UniProt O14920); conditions: IKKb/IKBKB
T28 construct: purchased Reaction Biology

[29] = molecular target: T29, 371 kinases (kinase named in each endpoint) (Homo sapiens, UniProt Q15375); conditions: EPHA7
T29 construct: purchased Reaction Biology

[30] = molecular target: T30, 371 kinases (kinase named in each endpoint) (Homo sapiens, UniProt P29320); conditions: EPHA3
T30 construct: purchased Reaction Biology

[31] = molecular target: T31, 371 kinases (kinase named in each endpoint) (Homo sapiens, UniProt Q02156); conditions: PKCEPSILON
T31 construct: purchased Reaction Biology

[32] = molecular target: T32, 371 kinases (kinase named in each endpoint) (Homo sapiens, UniProt O95819); conditions: HGK/MAP4K4
T32 construct: purchased Reaction Biology

[33] = molecular target: T33, 371 kinases (kinase named in each endpoint) (Homo sapiens, UniProt P08069); conditions: IGF1R
T33 construct: purchased Reaction Biology

[34] = molecular target: T34, 371 kinases (kinase named in each endpoint) (Homo sapiens, UniProt Q9NRH2); conditions: SNRK
T34 construct: purchased Reaction Biology

[35] = molecular target: T35, 371 kinases (kinase named in each endpoint) (Homo sapiens, UniProt P53667); conditions: LIMK1
T35 construct: purchased Reaction Biology

[36] = molecular target: T36, 371 kinases (kinase named in each endpoint) (Homo sapiens, UniProt O60674); conditions: JAK2
T36 construct: purchased Reaction Biology

T24 sequence (Q9BXA7 whole entry): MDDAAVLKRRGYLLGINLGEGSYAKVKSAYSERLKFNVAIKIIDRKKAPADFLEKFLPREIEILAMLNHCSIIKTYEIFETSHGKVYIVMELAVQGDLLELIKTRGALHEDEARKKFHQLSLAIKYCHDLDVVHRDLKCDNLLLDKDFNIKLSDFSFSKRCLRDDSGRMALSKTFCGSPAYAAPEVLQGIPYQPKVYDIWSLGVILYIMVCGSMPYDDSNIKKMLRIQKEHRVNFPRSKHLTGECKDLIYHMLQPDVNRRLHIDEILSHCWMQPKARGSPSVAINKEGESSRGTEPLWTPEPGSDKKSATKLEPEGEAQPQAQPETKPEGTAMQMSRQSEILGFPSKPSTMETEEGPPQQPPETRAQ
T4 sequence (Q99759 whole entry): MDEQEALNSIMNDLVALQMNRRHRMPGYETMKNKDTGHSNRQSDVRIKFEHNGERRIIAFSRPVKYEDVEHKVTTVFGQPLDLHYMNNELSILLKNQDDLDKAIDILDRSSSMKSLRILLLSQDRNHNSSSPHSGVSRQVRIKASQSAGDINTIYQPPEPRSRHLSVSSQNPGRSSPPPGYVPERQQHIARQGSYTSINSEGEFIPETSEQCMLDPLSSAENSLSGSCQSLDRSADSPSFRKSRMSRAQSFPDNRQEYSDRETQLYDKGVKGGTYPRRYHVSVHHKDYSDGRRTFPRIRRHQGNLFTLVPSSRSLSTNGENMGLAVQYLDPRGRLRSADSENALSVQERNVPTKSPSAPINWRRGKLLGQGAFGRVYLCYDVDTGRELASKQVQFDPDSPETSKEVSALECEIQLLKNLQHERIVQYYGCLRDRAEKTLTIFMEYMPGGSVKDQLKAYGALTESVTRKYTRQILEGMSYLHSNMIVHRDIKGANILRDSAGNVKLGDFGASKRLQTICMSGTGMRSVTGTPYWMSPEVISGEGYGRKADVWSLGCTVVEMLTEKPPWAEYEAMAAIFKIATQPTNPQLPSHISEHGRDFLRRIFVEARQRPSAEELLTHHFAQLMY
T29 sequence (Q15375 28-998): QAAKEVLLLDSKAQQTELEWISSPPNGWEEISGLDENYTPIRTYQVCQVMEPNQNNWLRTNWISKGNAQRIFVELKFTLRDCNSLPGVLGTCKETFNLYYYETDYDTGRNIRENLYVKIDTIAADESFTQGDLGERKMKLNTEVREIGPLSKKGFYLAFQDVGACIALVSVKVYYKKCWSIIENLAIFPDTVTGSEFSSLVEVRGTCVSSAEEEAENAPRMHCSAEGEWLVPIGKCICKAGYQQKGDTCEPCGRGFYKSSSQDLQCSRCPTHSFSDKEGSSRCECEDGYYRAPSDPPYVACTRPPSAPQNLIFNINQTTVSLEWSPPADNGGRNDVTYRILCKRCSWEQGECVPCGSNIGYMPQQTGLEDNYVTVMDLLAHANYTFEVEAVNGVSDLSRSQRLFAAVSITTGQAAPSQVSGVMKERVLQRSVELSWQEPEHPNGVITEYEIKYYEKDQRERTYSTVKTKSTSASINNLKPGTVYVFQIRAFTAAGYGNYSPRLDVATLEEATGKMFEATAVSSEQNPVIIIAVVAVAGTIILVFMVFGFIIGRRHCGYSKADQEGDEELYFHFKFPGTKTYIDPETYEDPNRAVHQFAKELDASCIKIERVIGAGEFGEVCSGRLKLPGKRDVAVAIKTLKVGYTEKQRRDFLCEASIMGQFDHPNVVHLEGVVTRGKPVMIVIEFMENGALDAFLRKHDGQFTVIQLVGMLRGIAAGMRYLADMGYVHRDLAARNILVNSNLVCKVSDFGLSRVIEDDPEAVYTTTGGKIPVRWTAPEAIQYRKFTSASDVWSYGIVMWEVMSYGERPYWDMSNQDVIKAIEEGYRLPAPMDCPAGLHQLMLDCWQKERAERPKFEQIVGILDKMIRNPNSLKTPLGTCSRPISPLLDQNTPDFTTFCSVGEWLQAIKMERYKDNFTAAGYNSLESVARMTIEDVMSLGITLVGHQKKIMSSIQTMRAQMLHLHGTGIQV
T10 sequence (P36896 24-505): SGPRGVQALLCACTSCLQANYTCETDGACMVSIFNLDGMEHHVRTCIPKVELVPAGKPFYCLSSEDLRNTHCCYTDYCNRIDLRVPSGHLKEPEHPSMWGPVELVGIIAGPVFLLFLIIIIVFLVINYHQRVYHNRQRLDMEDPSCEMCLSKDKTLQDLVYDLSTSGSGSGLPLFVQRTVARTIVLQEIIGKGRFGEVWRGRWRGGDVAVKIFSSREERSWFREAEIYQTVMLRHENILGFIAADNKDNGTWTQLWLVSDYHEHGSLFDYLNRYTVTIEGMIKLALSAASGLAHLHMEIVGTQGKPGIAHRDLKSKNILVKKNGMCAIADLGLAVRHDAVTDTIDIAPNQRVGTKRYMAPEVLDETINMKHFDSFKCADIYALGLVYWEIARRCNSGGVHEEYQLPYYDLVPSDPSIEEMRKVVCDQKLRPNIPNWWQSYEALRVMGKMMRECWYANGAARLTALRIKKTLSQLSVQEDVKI
T28 sequence (O14920 whole entry): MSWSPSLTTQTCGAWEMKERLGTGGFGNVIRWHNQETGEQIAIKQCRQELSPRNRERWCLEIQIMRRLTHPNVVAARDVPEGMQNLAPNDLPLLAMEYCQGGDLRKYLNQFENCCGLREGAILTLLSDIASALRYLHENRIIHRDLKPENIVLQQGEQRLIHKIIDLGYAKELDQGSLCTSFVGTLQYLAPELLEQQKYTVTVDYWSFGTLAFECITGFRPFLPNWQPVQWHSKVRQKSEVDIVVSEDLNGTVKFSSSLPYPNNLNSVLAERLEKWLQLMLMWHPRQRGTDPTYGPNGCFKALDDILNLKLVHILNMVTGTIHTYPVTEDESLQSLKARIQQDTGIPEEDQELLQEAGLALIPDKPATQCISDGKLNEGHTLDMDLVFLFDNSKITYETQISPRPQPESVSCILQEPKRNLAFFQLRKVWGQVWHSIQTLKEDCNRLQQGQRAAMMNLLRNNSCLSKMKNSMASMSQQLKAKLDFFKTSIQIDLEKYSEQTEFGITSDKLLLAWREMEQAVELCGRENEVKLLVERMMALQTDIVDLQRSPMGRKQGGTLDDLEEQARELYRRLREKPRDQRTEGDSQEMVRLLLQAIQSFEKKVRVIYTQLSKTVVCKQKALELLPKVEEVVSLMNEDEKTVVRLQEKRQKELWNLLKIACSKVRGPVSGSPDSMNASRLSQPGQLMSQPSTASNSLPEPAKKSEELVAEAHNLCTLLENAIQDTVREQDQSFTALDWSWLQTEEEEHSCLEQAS
T11 sequence (Q00536 whole entry): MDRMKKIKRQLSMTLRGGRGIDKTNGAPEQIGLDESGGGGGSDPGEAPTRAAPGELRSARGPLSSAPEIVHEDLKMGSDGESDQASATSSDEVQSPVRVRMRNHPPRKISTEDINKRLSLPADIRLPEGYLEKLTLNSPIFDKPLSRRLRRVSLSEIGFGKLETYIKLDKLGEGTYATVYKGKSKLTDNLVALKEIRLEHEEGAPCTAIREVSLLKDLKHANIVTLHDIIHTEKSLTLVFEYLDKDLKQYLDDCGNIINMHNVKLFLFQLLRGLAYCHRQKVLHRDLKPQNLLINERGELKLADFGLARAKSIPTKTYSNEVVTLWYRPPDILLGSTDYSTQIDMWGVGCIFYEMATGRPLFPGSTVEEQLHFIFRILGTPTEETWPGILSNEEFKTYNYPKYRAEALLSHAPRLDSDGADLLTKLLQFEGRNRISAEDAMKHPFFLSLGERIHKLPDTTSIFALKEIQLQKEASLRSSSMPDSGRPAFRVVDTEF
T32 sequence (O95819 whole entry): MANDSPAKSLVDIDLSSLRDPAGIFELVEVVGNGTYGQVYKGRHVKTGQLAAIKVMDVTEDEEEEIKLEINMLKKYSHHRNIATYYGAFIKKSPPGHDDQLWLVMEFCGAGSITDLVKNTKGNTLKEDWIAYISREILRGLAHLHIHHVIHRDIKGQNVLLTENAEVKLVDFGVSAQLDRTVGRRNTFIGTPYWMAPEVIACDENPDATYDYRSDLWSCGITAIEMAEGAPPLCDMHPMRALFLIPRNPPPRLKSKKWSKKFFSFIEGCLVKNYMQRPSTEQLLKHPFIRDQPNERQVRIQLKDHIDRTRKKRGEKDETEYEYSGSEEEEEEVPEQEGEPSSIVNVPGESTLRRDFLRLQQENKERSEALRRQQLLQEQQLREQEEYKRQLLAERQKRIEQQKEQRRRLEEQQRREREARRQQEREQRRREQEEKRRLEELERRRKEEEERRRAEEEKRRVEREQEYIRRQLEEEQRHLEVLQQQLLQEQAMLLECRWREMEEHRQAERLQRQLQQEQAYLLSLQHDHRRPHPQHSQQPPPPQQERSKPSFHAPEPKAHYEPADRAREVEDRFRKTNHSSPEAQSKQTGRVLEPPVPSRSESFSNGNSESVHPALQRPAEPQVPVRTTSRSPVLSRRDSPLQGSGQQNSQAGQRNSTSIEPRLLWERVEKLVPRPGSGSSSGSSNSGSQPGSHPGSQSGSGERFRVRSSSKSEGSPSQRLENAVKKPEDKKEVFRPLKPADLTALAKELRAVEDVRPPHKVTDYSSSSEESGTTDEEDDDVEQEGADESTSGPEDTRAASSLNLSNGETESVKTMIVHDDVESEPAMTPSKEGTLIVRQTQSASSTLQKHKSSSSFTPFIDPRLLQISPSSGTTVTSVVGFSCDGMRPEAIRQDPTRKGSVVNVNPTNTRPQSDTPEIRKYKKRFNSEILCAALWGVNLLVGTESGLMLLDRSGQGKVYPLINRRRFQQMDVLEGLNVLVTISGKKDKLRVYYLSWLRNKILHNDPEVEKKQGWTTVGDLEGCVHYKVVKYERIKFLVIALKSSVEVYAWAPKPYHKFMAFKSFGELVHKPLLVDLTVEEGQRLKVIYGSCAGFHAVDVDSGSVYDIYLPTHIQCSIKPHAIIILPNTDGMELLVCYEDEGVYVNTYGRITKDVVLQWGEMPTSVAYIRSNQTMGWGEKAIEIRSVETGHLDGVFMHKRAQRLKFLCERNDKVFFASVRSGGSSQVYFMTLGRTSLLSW

Work on `O=C(O)c1cc(C(F)(F)F)ccc1NCCc1c[nH]c2cc(Br)ccc12` [Compound 5, 2-((2-(6-Bromo-1H-indol-3-yl)ethyl)amino)−5-(trifluoromethyl)benzoic Acid] yielded an activity at 10 µM [1] of 92 ± 0.4%, an activity at 10 µM [2] of 74.4% and an activity at 10 µM [3] of 154.6 ± 0.7%. For the same molecule, the activity at 10 µM [4] was 107 ± 1.1%, the activity at 10 µM [5] was 67.3 ± 1.4% and the activity at 10 µM [6] was 59.4 ± 2.8%. It also gave an activity at 10 µM [7] of 95.2 ± 1.6%, an activity at 10 µM [8] of 62.2 ± 0.8% and an activity at 10 µM [9] of 67.9 ± 1.8%. It also gave an activity at 10 µM [10] of 66.7 ± 0.1%, an activity at 10 µM [11] of 76.9 ± 0.5% and an activity at 10 µM [12] of 99.5 ± 0.1%. It also gave an activity at 10 µM [13] of 91.1 ± 0.8%, an activity at 10 µM [14] of 91.8 ± 2.3% and an activity at 10 µM [15] of 77.2 ± 2.3%. It also gave an activity at 10 µM [16] of 69.8 ± 1.7%, an activity at 10 µM [17] of 57.6 ± 2% and an activity at 10 µM [18] of 97.8 ± 0.2%. For the same molecule, the activity at 10 µM [19] was 97.8 ± 0.3%, the activity at 10 µM [20] was 94.3 ± 0.5% and the activity at 10 µM [21] was 118 ± 3%. The activity at 10 µM [22] was 74.1 ± 1.8%, the activity at 10 µM [23] was 102.6 ± 0.3% and the activity at 10 µM [24] was 103.5 ± 0.1%. It also gave an activity at 10 µM [25] of 91.2 ± 0.3%, an activity at 10 µM [26] of 79.5 ± 0.8% and an activity at 10 µM [27] of 90.8 ± 1.1%. It also gave an activity at 10 µM [28] of 82.1 ± 0.2%, an activity at 10 µM [29] of 82.8 ± 2.2% and an activity at 10 µM [30] of 99.7 ± 1.6%. It also gave an activity at 10 µM [31] of 96.1 ± 0.2%, an activity at 10 µM [32] of 50.4 ± 0.4% and an activity at 10 µM [33] of 93.2 ± 0.1%. It also gave an activity at 10 µM [34] of 80.4 ± 2.1%, an activity at 10 µM [35] of 84.2% and an activity at 10 µM [36] of 78.8 ± 1.9%.
